# Measured values as given in publication PMC6271122, “Effects of Fructus Psoraleae Extract on the Intestinal Absorption Kinetics of Geniposide and Geniposidic Acid in Rat” (Molecules, 2014).
# Where two headings read alike, the source gives them in different places.
# What was measured:
# [1] = Effect of physical adsorption of the peristaltic pump; format: physicochemical; settings: for Physical Adsorption RSD (%): original vs 3 h concentration, 37 °C; for Concentration (mg/L) 3 h: perfusion solution after 3 h in water bath at 37 °C, compared with original concentration
# Procedure: The perfusion solutions with known drug concentrations were incubated for 3 h in a water bath at 37 °C. The concentrations of GP and GPA in the resulting solution were determined and compared with the original concentrations.
# [2] = In situ intestinal perfusion of rat duodenum (UPLC of perfusate); format: in vivo; settings: for Cumulative Absorption Rate (%) 1 h (mean ± SD) / Cumulative Absorption Rate (%) 3 h (mean ± SD): rat duodenum, n = 6
# Procedure: All animal experimental procedures were in compliance with the National Institutes of Health Guide for Care and Use of Laboratory Animals. The in situ intestinal perfusion experiment was performed by using male Sprague-Dawley rats (240 ± 20 g) which obtained from Beijing Vital River Laboratory Animal Technology Co., Ltd. (SCXK 2012-0001, Beijing, China). Animals were fasted overnight (12 h) with free access to water before being allocated to different experimental groups at random. After the abdominal cavity was opened, an intestinal loop (length, 10 cm) was made by cannulation with silicone tube (i.d., 3 mm) at the duodenum which was selected 1 cm away from pylorus. The intestinal contents were removed by infusion of normal saline solution. The 25 mL perfusion solution was precisely measured and stored in the measuring cylinder. At the start of the experiment, the perfusion solutions perfused through the intestinal segment at a flow rate of 5 mL/min for 10 min by using a peristaltic pump (Petro Gas Ausrüstungen, Berlin, Germany). On reaching a steady state, changed the flow rate to 2.5 mL/min, and the intestinal perfusion samples (150 µL × 3) were collected at 30 min intervals for the duration of 3 h (0, 0.5, 1, 1.5, 2, 2.5, 3 h) with a pipette and put into shell tube. After each collection, the volumes (V1) of the perfusion solutions were recorded precisely and 450 µL blank K-R solution was added into the perfusion solution to keep the volume of the perfusion solution constant. After 3 h, the intestinal perfusion solution in peristaltic pump and the duodenum was exhausted, the volume of which was recorded as V2. All the samples were assayed by UPLC after preparation. Finally, the curves of time and the residual quantities (lnx) of GP and GPA in intestinal solution during the absorption in the duodenum for 3 h were obtained (Figure 2).The residual quantities of GP and GPA in the perfusion solution were calculated using the following equation: Xn = CnVn + 0.45 [drawing 1] , Xn is the residual quantities of GP or GPA in intestinal solution, Ci and Cn is the concentration of the GP or GPA, Vn is the volume of the intestinal perfusion solution (Vn = V1 + V2). Cumulative absorption rates were compared for 1 h and 3 h between the single and compatibility groups. The equation was as follows: 1 h/3 h cumulative absorption rate [drawing 2] .
# Samples were prepared using a protein precipitation method at a volume ratio of 1:1 (v/v). The perfusion sample (150 µL) was mixed with CH3OH (150 µL), and then vortexed for 1 min. After 10 min for the precipitation, pure water (160 µL) was added to 40 µL of the above mixture. Then the sample was vortexed for 1 min and centr ifuged at 14,000 rpm for 10 min. The supernatant was directly used for UPLC analysis.
# After sample preparation, 3 µL of the supernatant was injected into the UPLC system, and separated on a Waters BEH C18 column (2.1 × 50 mm, 1.7 µm). The column temperature was set at 25 °C. The mobile phase was consisted of water with 0.2% acetic acid (A) and acetonitrile (B) at a flow rate of 0.35 mL/min. The mobile phase operated in the following gradient for GP: 0–3 min: 15%–50% B, 3–3.5 min: 50%–90% B, 3.5–4 min: 90%–50% B, 4–5 min: 50%–15% B; GPA: 0–1 min: 5%–10% B, 1–2 min: 10%–20% B, 2–3 min: 20%–50% B, 3–4 min: 50%–10% B, 4–5 min: 10%–5% B. The detection wavelength was 254 nm.
# [3] = Stability in blank intestinal perfusion solution; format: physicochemical; settings: 3 h, 50 mg/L; for Stability in blank intestinal perfusion solution: 37 °C; for Stability, RSD (%): Blank intestinal perfusion solution, 37 °C water bath, concentrations at 0, 0.25, 0.5, 1, 2 and 3 h compared
# Procedure: A total of 50 mg/L GP and GPA perfusion solution (dissolved in blank intestinal perfusion solution) was incubated in a water bath at 37 °C for 3 h. The concentrations at 0, 0.25, 0.5, 1, 2 and 3 h were determined and compared.
# The blank intestinal perfusion solution was prepared by a process consistent with the in situ intestinal perfusion experiment (as follows) except for the vacancy of GP or other components in the K-R solution.
# [4] = tested on: β-D-glucosidase in rat liver homogenate; design: method as in PMID 7735197; settings: cited from earlier work
# [5] = tested on: β-D-glucosidase of a human intestinal anaerobe, Eubacterium sp.A-44; settings: cited from earlier work
# NO production = tested on: NO production; design: method as in PMID 22181069; settings: protection from renal injury; cited from earlier work
# [6] = Stability in K-R solution; format: physicochemical; settings: 24 h, room temperature; for Stability, RSD (%): K-R solution, concentrations at 0-24 h compared
# Procedure: GP and GPA were stable in K-R solution at room temperature for 24 h. The concentrations at 0, 1, 2, 3, 5, 6, 8, 10 and 24 h were determined and compared.
# All the components were dissolved in the K-R solution to imitate the physiological conditions of the intestinal tract. K-R nutrient solution included: NaCl 7.8 g, KCl 0.35 g, CaCl2 0.37 g, NaHCO3 1.37 g, NaH2PO4 0.02 g, MgCl2 0.02 g, glucose 2.22 g. They were dissolved in distilled water to 1000 mL.
# [7] = cited from earlier work
# [8] = Compatibility group (mixed with FPE)
# [9] = Single group, 80 mg/L perfusion solution
Intestinal absorption at 216 mg/L ([2]; GPA 216 mg/L in intestinal perfusion solution),Compound,Physical Adsorption RSD (%) [1],Concentration (mg/L) 3 h [1],"Cumulative Absorption Rate (%) 1 h (mean ± SD) [2, 8]","Cumulative Absorption Rate (%) 3 h (mean ± SD) [2, 8]","Cumulative Absorption Rate (%) 1 h (mean ± SD) [2, 9]","Cumulative Absorption Rate (%) 3 h (mean ± SD) [2, 9]",Stability in blank intestinal perfusion solution [3],"Stability, RSD (%) [3]",Hydrolysis by β-D-glucosidase [4],Hydrolysis by β-D-glucosidase ([5]; human intestinal anaerobe Eubacterium sp.A-44),Effect on NO production (NO production),"Stability, RSD (%) [6]",Stability in K-R solution [6],Absorption in the duodenum by concentration ([7]; GP at 78 mg/L compared with other concentrations),Absorption in the duodenum versus other parts of the intestinal tract [7],Hydrolysis by β-D-glucosidase [5]
–,"COC(=O)C1=CO[C@@H](O[C@@H]2O[C@H](CO)[C@@H](O)[C@H](O)[C@H]2O)[C@@H]2C(CO)=CC[C@H]12 [GP, Geniposide]",0.57%,92.34 mg/L,0.139 ± 0.104%,0.120 ± 0.063%,0.059 ± 0.018 %,0.081 ± 0.017 %,stable,3.27%,cannot be hydrolyzed,can be hydrolyzed,inhibited NO production,1.32%,stable,best absorption,better than other parts of the intestinal tract,–
poor absorption,"O=C(O)C1=CO[C@@H](O[C@@H]2O[C@H](CO)[C@@H](O)[C@H](O)[C@H]2O)[C@@H]2C(CO)=CC[C@H]12 [GPA, geniposidic acid]",1.32%,114.68 mg/L,0.075 ± 0.015%,0.105 ± 0.028%,0.063 ± 0.040%,0.136 ± 0.046%,stable,0.45%,–,–,–,2.01%,stable,–,–,can hydolyse
